Measured values from paper PMC3456924, “Single-dose pharmacokinetic and toxicity analysis of pyrrole–imidazole polyamides in mice” (Cancer Chemotherapy and Pharmacology, 2012).
Several values for one entry are separate records, joined by “and”; a condition that tells them apart may be missing. Equal values may be shown once. Entries after “also recorded” stand apart in the source; their conditions may differ. Read-outs that look alike come from different tables or passages of the source.

Key:
pH stability analysis = assay type: physicochemical; conditions: buffers at 37 °C for 24 h; analytical HPLC
Procedure: The pH stability of Py-Im polyamides was analyzed as previously described. In summary, 15 μL of a 10 μM solution of polyamide 1 or 2 in DMSO was incubated with 85 μL of buffer with pH of 2.5, 4, 7, or 10 (Fluka) at 37 °C for 24 h. After incubation, the sample was mixed with an equal volume of N,N-dimethylformamide and sonicated briefly. Next, 20 μL of the sample solution was mixed with 180 μL of aqueous buffer containing 100 mM NH4OAc and 25 μM methyl 4-nitro-1H-pyrrole-2-carboxylate as an internal standard. Analytical HPLC analysis was performed on a Beckman analytical HPLC.

C57BL/6 mice = assay: Toxicity (weight loss, signs of duress) after a single SC injection; conditions: for additional signs of duress / dose level with critical (>15 %) / dose-limiting weight loss: single SC injection, 7-day observation
Excerpt: Four animals were used in each group unless otherwise noted.

[1] = tested on: androgen receptor (AR) signaling; PSA mRNA in LNCaP prostate cancer cells; conditions: cited from earlier work
[2] = Tissue distribution (liver, kidney, lung) after a single IV injection; assay type: in vivo, BALB/C mice; conditions: for concentration at 24 h / Tmax: female, BALB/C, mouse; for concentration at 24 h: experiment endpoint (24 h), read-out: concentration remaining in the liver at the experiment endpoint; for AUC (AUC0–24h) kidney / C max kidney / AUC (AUC0–24h) liver / C max liver / AUC (AUC0–24h) lung / C max lung: 7.5 mg/kg (1), 5 mg/kg (2); for concentration in the lung maintained over the entire time course: lowest level over 24 h
Procedure: Pyrrole–imidazole polyamide pharmacokinetic studies were performed in 10- to 12-week-old female BALB/C mice (Charles River). Polyamides were solubilized in PBS (1) or PBS/DMSO (2) and administered via intravenous (IV) tail vein injection at concentrations of 7.5 and 5 mg/kg, respectively. For each experiment, groups of 3 animals were euthanized at 0.083, 0.25, 0.5, 1, 2, 4, 8, and 24 h after injection. Animals designated for the 4, 8, and 24 h time points were housed in metabolic cages for collection of urine and feces as described below. All animals used in the pharmacokinetic experiments were performed under an approved protocol at the City of Hope.
Distribution of polyamides 1 and 2 was determined in the liver, kidneys, and lungs. The organs were harvested post-euthanasia and prepared via similar processes. A piece of the mouse organ was weighed and mixed with distilled water (3 μL/mg tissue). The tissue was then homogenized by pulsing three times on a TissueLyser for 2 min each at 30 Hz. Next, 30 μL of the tissue homogenate was mixed with 20 μL of 50 % MeOH and 50 % aqueous 1 % HOAc. The mixture was then vortex mixed with 0.12 mL 0.5 % HOAc in MeOH/ACN (2:8) and 20 μL of 6.0 μg/mL INS in MeOH/1 % aqueous HOAc (1:1) for 10 min and centrifuged at the highest setting for an additional 10 min. Samples treated with polyamide 1 were then diluted with 50 % MeOH/ACN (4:6) and 50 % aqueous 1 % HOAc. Samples treated with polyamide 2 were diluted with 50 % MeOH/ACN (4:6) and 50 % aqueous 3 % FA.
Plasma pharmacokinetic parameters were derived from polyamide concentration profiles using both non-compartmental and compartmental methods. Non-compartmental analysis was performed according to statistical moment theory and the rule of linear trapezoids, while compartmental analysis was performed in ADAPT II [24]. Pharmacokinetic parameters estimated from the non-compartmental analysis include the maximum concentration (C max), the terminal elimination half-life (t 1/2), the mean residence time (MRT), the area under the concentration curve (AUC0–24h), the AUC extrapolated to infinity (AUC0–∞), and the clearance (CL). Additional plasma pharmacokinetic parameters determined from the compartmental analysis include the alpha and beta half-lives (t 1/2) and the apparent volume of distribution (V d). Tissue pharmacokinetic parameters were determined non-compartmentally and included the C max and AUC0–24h. Urinary and fecal excretion data were expressed as the cumulative percentage of the administered dose.

Row | Compound | stability at pH 2.5, 4, 7, and 10 (pH stability analysis) | additional signs of duress (C57BL/6 mice) | dose level with critical (>15 %) / dose-limiting weight loss (C57BL/6 mice) | concentration at 24 h ([2]; liver, single IV) | AUC (AUC0–24h) kidney ([2]; kidney, single IV) | C max kidney ([2]; kidney, single IV) | AUC (AUC0–24h) liver ([2]; liver, single IV) | C max liver ([2]; liver, single IV) | concentration in the lung maintained over the entire time course ([2]; lung, single IV) | AUC (AUC0–24h) lung ([2]; lung, single IV) | C max lung ([2]; lung, single IV) | further results
1 | CC(=O)N[C@@H](CNC(=O)c1cc(NC(=O)c2cc(NC(=O)c3cc(NC(=O)c4nccn4C)cn3C)cn2C)cn1C)CC(=O)Nc1cn(C)c(C(=O)Nc2cc(C(=O)Nc3cc(C(=O)Nc4cc(C(=O)NCCCN(C)CCCNC(=O)c5cccc(C(=O)O)c5)n(C)c4)n(C)c3)n(C)c2)n1 [Polyamide 2] | did not display significant signs of degradation at any pH | multiple signs of duress such as loss of ambulation and hunched posture in addition to weight loss; also recorded: additional signs of physical duress in addition to weight loss at all concentrations except 1.1 mg/kg | 4.5 mg/kg and 2.3 mg/kg | 17400 ± 8100 ng/g | 424.7 µg·h/g | 35.1 ± 2.8 µg/g | 301.3 µg·h/g | 43.8 ± 0.7 µg/g | > 21.8 ± 7.6 µg/g | 523.5 µg·h/g | 256 ± 93.1 µg/g | relative toxicity in weight curve experiments (C57BL/6 mice; single SC injection of 1 and 2): more toxic; activity relative to polyamide 1 (AR-driven gene / PSA mRNA downregulation) ([1]; cell culture): tenfold increase; also recorded: equivalent activity to 1 at tenfold less concentration; time of maximum concentration in kidney postinjection ([2]; kidney, single IV): 5 min; time of maximum concentration in liver postinjection ([2]; liver, single IV): 5 min; lung C max of polyamide 2 relative to compound 1 ([2]; lung, initial distribution): greater than 15 fold; time of peak concentration in lung following injection ([2]; lung, single IV): 15 min
2 | CN(CCCNC(=O)c1cccc(C(=O)O)c1)CCCNC(=O)c1cc(NC(=O)c2cc(NC(=O)c3cc(NC(=O)c4nc(NC(=O)[C@H](N)CCNC(=O)c5cc(NC(=O)c6cc(NC(=O)c7cc(NC(=O)c8nccn8C)cn7C)cn6C)cn5C)cn4C)cn3C)cn2C)cn1C [Polyamide 1] | did not display significant signs of degradation at any pH | no additional sign of duress was observed | 10 mg/kg | 4800 ± 300 ng/g | 299.2 µg·h/g | 27.0 ± 2.9 µg/g | 157.7 µg·h/g | 11.7 ± 1.3 µg/g | above 2.8 ± 0.2 μg/g | 130.6 µg·h/g | 16.4 ± 1.4 µg/g | most active concentration for inhibition of DHT-induced genes ([1]; LNCaP cells co-treated with DHT): 7.4 µg/mL; Tmax ([2]; kidney, single IV, read-out: time of maximum concentration in kidney postinjection (converted)): 5 min; Tmax ([2]; liver, single IV, read-out: time of maximum concentration in liver postinjection (converted)): 5 min; Tmax ([2]; lung, single IV, read-out: time of peak concentration in lung following injection (converted)): 15 min
